Measured values published in patent US6858591B2, “Antibiotic AA 896 analogs” (Wyeth Holdings Corporation, priority 2001, dated 2005).
≈ marks a conversion by molar mass, not a printed value. Like-named read-outs stand apart in the source and are kept apart here.

What was measured:
Assay in all cases: In vitro MIC, broth dilution
Format in all cases: cell-based
E. coli GC 4560 = details: Escherichia coli, GC4560
K. pneumoniae GC 4534 = details: Klebsiella pneumoniae, GC4534
P. aeruginosa GC 4532 = details: Pseudomonas aeruginosa, GC4532
P. aeruginosa GC 2214 = details: Pseudomonas aeruginosa, GC2214
E. coli GC 2203 = details: Escherichia coli, GC2203
S. marcescens GC 4077 = details: Serratia marcescens, GC4077
C. albicans GC 3066 = details: Candida albicans, GC3066
E. cloacae GC 3783 = details: Enterobacter cloacae, GC3783
M. morganii GC 4531 = details: Morganella morganii, GC4531
CNS GC 4538 = system: CNS GC 4538
Procedure, shortened: (§1)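 Lowest concentration blocking bacterial growth, read after 18 h at 35 °C in ambient air. Mueller-Hinton II broth dilution, 5×10^5 CFU/ml inoculum, drug range 64-0.06 μg/ml.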

E. faecalis GC 2242 = details: Enterococcus faecalis, GC2242
Procedure, shortened: as §1

CNS GC 4547 = system: CNS GC 4547
Procedure, shortened: as §1

S. aureus GC 2216 = details: Staphylococcus aureus, GC2216
Procedure, shortened: as §1

S. aureus GC 1131 = details: Staphylococcus aureus, GC1131
Procedure, shortened: as §1

E. faecalis GC 4555 = details: Enterococcus faecalis, GC4555
Procedure, shortened: as §1

E. faecalis GC 842 = details: Enterococcus faecalis, GC842
Procedure, shortened: as §1

S. aureus GC 4536 = details: Staphylococcus aureus, GC4536
Procedure, shortened: as §1

CNS GC 4537 = system: CNS GC 4537
Procedure, shortened: as §1

E. coli GC 4559 = details: Escherichia coli, GC4559
E. coli GC 3226 = details: Escherichia coli, GC3226
[1] = K. pneumoniae GC 4534, read-out: MIC
[2] = P. aeruginosa GC 4532, read-out: MIC
[3] = P. aeruginosa GC 2214, read-out: MIC
[4] = S. marcescens GC 4077, read-out: MIC
[5] = C. albicans GC 3066, read-out: MIC
[6] = E. cloacae GC 3783, read-out: MIC
[7] = M. morganii GC 4531, read-out: MIC
[8] = E. faecalis GC 2242, read-out: MIC
[9] = S. aureus GC 2216, read-out: MIC
[10] = S. aureus GC 1131, read-out: MIC
[11] = E. faecalis GC 4555, read-out: MIC
[12] = E. faecalis GC 842, read-out: MIC
[13] = S. aureus GC 4536, read-out: MIC

SMILES | MIC (E. coli GC 4560; E. coli GC 4560, read-out: MIC) [µg/mL] | MIC (K. pneumoniae GC 4534; [1]) [µg/mL] | MIC (P. aeruginosa GC 4532; [2]) [µg/mL] | MIC (P. aeruginosa GC 2214; [3]) [µg/mL] | MIC (E. coli GC 2203; E. coli GC 2203, read-out: MIC) [µg/mL] | MIC (S. marcescens GC 4077; [4]) [µg/mL] | MIC (C. albicans GC 3066; [5]) [µg/mL] | MIC (E. cloacae GC 3783; [6]) [µg/mL] | MIC (M. morganii GC 4531; [7]) [µg/mL] | MIC (CNS GC 4538) [µg/mL] | MIC (E. faecalis GC 2242; [8]) [µg/mL] | MIC (CNS GC 4547) [µg/mL] | MIC (S. aureus GC 2216; [9]) [µg/mL] | MIC (S. aureus GC 1131; [10]) [µg/mL] | MIC (E. faecalis GC 4555; [11]) [µg/mL] | MIC (E. faecalis GC 842; [12]) [µg/mL] | MIC (S. aureus GC 4536; [13]) [µg/mL] | MIC (CNS GC 4537) [µg/mL] | MIC (E. coli GC 4559; E. coli GC 4559, read-out: MIC) [µg/mL] | MIC (E. coli GC 3226; E. coli GC 3226, read-out: MIC) [µg/mL] | also measured
COc1ccc(Cn2c(=O)ccn([C@@H]3OC([C@H](O)[C@H](NCCCNC(=O)[C@@H](NC(=O)[C@H](CCCNC(=N)N[N+](=O)[O-])NC(=O)N[C@H](C(=O)OCc4ccccc4)C(C)C)C(C)O)C(=O)O)[C@@H](O)[C@H]3O)c2=O)cc1 (stereo partly drawn) [Example 47, (4S,8S,11S,18S)-18-[(R)-[(3S,4R,5R)-3,4-Dihydroxy-5-(3-(4-methoxybenzyl)-2,4-dioxo-3,4-dihydro-1(2H)-pyrimidinyl)tetrahydro-2-furanyl](hydroxy)methyl]-8-(3-{[(2,2-dioxido-2lambda˜1˜-diazanyl)(imino)methyl]amino}propyl)-11-[(1S)-1-hydroxyethyl]-4-isopropyl-3,6,9,12-tetraoxo-1-phenyl-2-oxa-5,7,10,13,17-pentaazanonadecan-19-oic acid] | 128 (≈ 124 µM) | > 128 | 128 (≈ 124 µM) | > 128 | > 128 | 128 (≈ 124 µM) | 128 (≈ 124 µM) | > 128 | 128 (≈ 124 µM) | > 128 | 64 (≈ 62.1 µM) | > 128 | > 128 | > 128 | 128 (≈ 124 µM) | 128 (≈ 124 µM) | > 128 | > 128 | > 128 | > 128 | 
COc1ccc(Cn2c(=O)ccn([C@@H]3OC([C@H](O)[C@H](NCCCNC(=O)[C@@H](NC(=O)OCc4ccccc4)[C@H](C)O)C(=O)OC(C)(C)C)[C@@H](O[Si](C)(C)C(C)(C)C)[C@H]3O[Si](C)(C)C(C)(C)C)c2=O)cc1 (stereo partly drawn) [Example 10, tert-Butyl (5S,12S)-12-[(R)-[(3R,4R,5R)-3,4-bis{[tert-butyl(dimethyl)silyl]oxy}-5-(3-(4-methoxybenzyl)-2,4-dioxo-3,4-dihydro-1(2H)-pyrimidinyl)tetrahydro-2-furanyl](hydroxy)methyl]-5-[(1S)-1-hydroxyethyl]-3,6-dioxo-1-phenyl-2-oxa-4,7,11-triazatridecan-13-oate] |  |  |  |  |  |  |  |  |  | > 128 |  | > 128 |  |  |  |  |  | > 128 |  |  | MIC (E. coli GC 4560): > 128 µg/mL; MIC (K. pneumoniae GC 4534): > 128 µg/mL; MIC (P. aeruginosa GC 4532): > 128 µg/mL; MIC (P. aeruginosa GC 2214): > 128 µg/mL; MIC (E. coli GC 2203): > 128 µg/mL; MIC (S. marcescens GC 4077): > 128 µg/mL; MIC (C. albicans GC 3066): 128 µg/mL (≈ 126 µM); MIC (E. cloacae GC 3783): > 128 µg/mL; MIC (M. morganii GC 4531): > 128 µg/mL; MIC (E. faecalis GC 2242): 128 µg/mL (≈ 126 µM); MIC (S. aureus GC 2216): > 128 µg/mL; MIC (S. aureus GC 1131): > 128 µg/mL; MIC (E. faecalis GC 4555): > 128 µg/mL; MIC (E. faecalis GC 842): > 128 µg/mL; MIC (S. aureus GC 4536): > 128 µg/mL; MIC (E. coli GC 4559): > 128 µg/mL; MIC (E. coli GC 3226): > 128 µg/mL
COc1ccc(Cn2c(=O)ccn([C@@H]3OC([C@H](O)[C@H](NCCCNC(=O)[C@@H](N)CC(C)C)C(=O)O)[C@@H](O)[C@H]3O)c2=O)cc1 (stereo partly drawn) [Example 53, (2S,3R)-2-[(3-{[(2S)-2-Amino-4-methylpentanoyl]amino}propyl)amino]-3-[(3S,4R,5R)-3,4-dihydroxy-5-(3-(4-methoxybenzyl)-2,4-dioxo-3,4-dihydro-1(2H)-pyrimidinyl)tetrahydro-2-furanyl]-3-hydroxypropanoic acid] | 128 (≈ 211 µM) | > 128 | 128 (≈ 211 µM) | 128 (≈ 211 µM) | > 128 | > 128 | 128 (≈ 211 µM) | > 128 | > 128 |  | 128 (≈ 211 µM) |  | > 128 | > 128 | 128 (≈ 211 µM) | 128 (≈ 211 µM) | > 128 |  | > 128 | > 128 | MIC (CNS GC 4538; CNS GC 4538, read-out: MIC): > 128 µg/mL; MIC (CNS GC 4547; CNS GC 4547, read-out: MIC): > 128 µg/mL; MIC (CNS GC 4537; CNS GC 4537, read-out: MIC): > 128 µg/mL
COc1ccc(Cn2c(=O)ccn([C@@H]3OC([C@H](O)[C@H](NCCCNC(=O)[C@H](C)NC(=O)OCc4ccccc4)C(=O)OC(C)(C)C)[C@@H](O[Si](C)(C)C(C)(C)C)[C@H]3O[Si](C)(C)C(C)(C)C)c2=O)cc1 (stereo partly drawn) [Example 14, tert-Butyl (5S,12S)-12-[(R)-[(3R,4R,5R)-3,4-bis{[tert-butyl(dimethyl)silyl]oxy}-5-(3-(4-methoxybenzyl)-2,4-dioxo-3,4-dihydro-1(2H)-pyrimidinyl)tetrahydro-2-furanyl](hydroxy)methyl]-5-methyl-3,6-dioxo-1-phenyl-2-oxa-4,7,11-triazatridecan-13-oate] | 128 (≈ 130 µM) | > 128 | 128 (≈ 130 µM) | 128 (≈ 130 µM) | > 128 | > 128 | 128 (≈ 130 µM) | > 128 | 128 (≈ 130 µM) |  | 128 (≈ 130 µM) |  | > 128 | > 128 | 128 (≈ 130 µM) | > 128 | > 128 |  | > 128 | > 128 | MIC (CNS GC 4538; CNS GC 4538, read-out: MIC): > 128 µg/mL; MIC (CNS GC 4547; CNS GC 4547, read-out: MIC): 128 µg/mL (≈ 130 µM); MIC (CNS GC 4537; CNS GC 4537, read-out: MIC): > 128 µg/mL
COc1ccc(Cn2c(=O)ccn([C@@H]3OC([C@H](O)[C@H](NCCCNC(=O)[C@H](CC(C)C)NC(=O)[C@H](CCCNC(=N)N[N+](=O)O)NC(=O)N[C@H](C(=O)OCc4ccccc4)C(C)C)C(=O)OC(C)(C)C)[C@@H](O[Si](C)(C)C(C)(C)C)[C@H]3O[Si](C)(C)C(C)(C)C)c2=O)cc1 (stereo partly drawn) [Example 28, 1-Benzyl 17-(tert-butyl)(2S,6S,9S,16S)-16-[(R)-[(3R,4R,5R)-3,4-bis{[tert-butyl(dimethyl)silyl]oxy}-5-(3-(4-methoxybenzyl)-2,4-dioxo-3,4-dihydro-1(2H)-pyrimidinyl)tetrahydro-2-furanyl](hydroxy)methyl]-6-(3-{[(2,2-dioxido-2lambda˜1˜-diazanyl)(imino)methyl]amino}propyl)-9-isobutyl-2-isopropyl-4,7,10-trioxo-3,5,8,11,15-pentaazaheptadecane-1,17-dioate] |  |  |  |  |  |  |  |  |  | > 128 |  | > 128 |  |  |  |  |  | > 128 |  |  | MIC (E. coli GC 4560): > 128 µg/mL; MIC (K. pneumoniae GC 4534): > 128 µg/mL; MIC (P. aeruginosa GC 4532): > 128 µg/mL; MIC (P. aeruginosa GC 2214): > 128 µg/mL; MIC (E. coli GC 2203): > 128 µg/mL; MIC (S. marcescens GC 4077): > 128 µg/mL; MIC (C. albicans GC 3066): > 128 µg/mL; MIC (E. cloacae GC 3783): > 128 µg/mL; MIC (M. morganii GC 4531): > 128 µg/mL; MIC (E. faecalis GC 2242): > 128 µg/mL; MIC (S. aureus GC 2216): > 128 µg/mL; MIC (S. aureus GC 1131): > 128 µg/mL; MIC (E. faecalis GC 4555): > 128 µg/mL; MIC (E. faecalis GC 842): > 128 µg/mL; MIC (S. aureus GC 4536): > 128 µg/mL; MIC (E. coli GC 4559): > 128 µg/mL; MIC (E. coli GC 3226): > 128 µg/mL
CCOC(=O)C(NCCCNC(=O)[C@H](CC(C)C)NC(=O)OCc1ccccc1)C(OC(C)=O)[C@H]1O[C@@H](n2ccc(=O)[nH]c2=O)[C@H](OC(C)=O)[C@@H]1OC(C)=O (stereo partly drawn) [Example 38b, Ethyl (5S)-12-{(R)-(acetyloxy)[(2R,3R,4R,5R)-3,4-bis(acetyloxy)-5-(2,4-dioxo-3,4-dihydro-1(2H)-pyrimidinyl)tetrahydro-2-furanyl]methyl}-5-isobutyl-3,6-dioxo-1-phenyl-2-oxa-4,7,11-triazatridecan-13-oate] | > 128 | > 128 | > 128 | > 128 | > 128 | > 128 | > 128 | > 128 | > 128 |  | > 128 |  | > 128 | > 128 | > 128 | > 128 | > 128 |  | > 128 | > 128 | MIC (CNS GC 4538; CNS GC 4538, read-out: MIC): > 128 µg/mL; MIC (CNS GC 4547; CNS GC 4547, read-out: MIC): > 128 µg/mL; MIC (CNS GC 4537; CNS GC 4537, read-out: MIC): > 128 µg/mL
